# Source: patent US12522594B2, “2-heteroaryl-3-oxo-2,3-dihydropyridazine-4-carboxamides for the treatment of cancer” (Deutsches Krebsforschungszentrum, priority 2017, dated 2026)
# Tests used:
# AHR [1] = biological target: T1, AHR (Homo sapiens, UniProt P35869); experiment: In vitro assay 1: antagonism in human cell line (transactivation assay, U87 cells prestimulated with kynurenic acid, DRE firefly luciferase reporter); format: cell-based; parameters: host or cells: U87 glioblastoma cells, stably transfected with DRE firefly luciferase and renilla reporter constructs; details: 150 uM kynurenic acid, 20 hours, read-out: Assay 1: AHR-luc Hum Antagonism IC50
# T1 sequence (P35869 11-848): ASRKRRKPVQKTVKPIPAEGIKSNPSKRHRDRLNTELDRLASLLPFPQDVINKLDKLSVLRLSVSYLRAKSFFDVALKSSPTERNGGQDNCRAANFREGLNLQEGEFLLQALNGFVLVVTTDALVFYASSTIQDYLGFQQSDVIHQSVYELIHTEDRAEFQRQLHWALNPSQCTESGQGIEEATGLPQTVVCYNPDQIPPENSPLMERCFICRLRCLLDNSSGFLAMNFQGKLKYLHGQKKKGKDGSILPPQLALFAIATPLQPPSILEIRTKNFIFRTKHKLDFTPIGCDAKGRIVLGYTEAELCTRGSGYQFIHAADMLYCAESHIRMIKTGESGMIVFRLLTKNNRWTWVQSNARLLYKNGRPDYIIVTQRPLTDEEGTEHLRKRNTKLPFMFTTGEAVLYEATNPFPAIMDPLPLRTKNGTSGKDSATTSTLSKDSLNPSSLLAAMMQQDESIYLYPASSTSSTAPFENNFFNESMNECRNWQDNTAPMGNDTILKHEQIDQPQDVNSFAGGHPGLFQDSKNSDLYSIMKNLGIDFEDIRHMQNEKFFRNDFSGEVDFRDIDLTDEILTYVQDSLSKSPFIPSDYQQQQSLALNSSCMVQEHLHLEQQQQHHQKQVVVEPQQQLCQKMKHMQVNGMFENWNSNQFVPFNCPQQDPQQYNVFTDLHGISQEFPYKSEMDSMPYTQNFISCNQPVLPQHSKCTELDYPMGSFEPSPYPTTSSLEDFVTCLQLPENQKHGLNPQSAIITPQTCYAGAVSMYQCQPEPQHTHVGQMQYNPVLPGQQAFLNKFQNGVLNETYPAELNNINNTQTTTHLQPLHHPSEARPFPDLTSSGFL
# Outline: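 Antagonism measured after kynurenic acid prestimulation in U87 cells that express AHR endogenously and stably harbor a firefly luciferase gene under DRE control plus a constitutive renilla construct. Positive and negative controls served for normalization.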
# AHR [2] = biological target: T1, AHR; experiment: In vitro assay 2: agonism in human cell line (transactivation assay, U87 cells, DRE firefly luciferase reporter); format: cell-based; parameters: host or cells: U87 glioblastoma cells, stably transfected with DRE firefly luciferase and renilla reporter constructs; details: no kynurenic acid, 20 hours, read-out: Assay 2: AHR-luc Hum Agonism IC50
# Outline: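 Agonist readout: DRE firefly luciferase, with constitutive renilla reporter, in stably transfected U87 cells expressing AHR endogenously. Normalization used positive control (300 uM kynurenic acid) and negative control.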
Structure (SMILES),IC50 (AHR [1]),IC50 (AHR [2])
"COC(=O)[C@@H](CO)NC(=O)c1cc(-c2ccc(Cl)cc2)nn(-c2cccnc2)c1=O [Example 274, Methyl N-{[6-(4-chlorophenyl)-3-oxo-2-(pyridin-3-yl)-2,3-dihydropyridazine-4-yl]carbonyl}-D-serinate]",111 nM,> 20000 nM
"C[C@@H](NC(=O)c1cc(-c2ccc(C(F)(F)F)nc2)nn(-c2cncc(F)c2)c1=O)C(C)(C)O [Example 342, 2-(5-Fluoropyridin-3-yl)-N-[(2R)-3-hydroxy-3-methylbutan-2-yl]-3-oxo-6-[6-(trifluoromethyl)pyridin-3-yl]-2,3-dihydropyridazine-4-carboxamide]",132 nM,> 20000 nM
"C[C@@H](CO)NC(=O)c1cc(-c2ccc(Cl)cc2)nn(-c2cnn(C3CCC3)c2)c1=O [Example 42, 6-(4-Chlorophenyl)-2-(1-cyclobutyl-1H-pyrazol-4-yl)-N-[(2S)-1-hydroxypropan-2-yl]-3-oxo-2,3-dihydropyridazine-4-carboxamide]",1570 nM,> 20000 nM
"O=C(N[C@H]1COC[C@@H]1O)c1cc(-c2ccc(OC(F)(F)F)cc2)nn(-c2cccnc2)c1=O (racemic) [Example 160, N-[(trans)-4-Hydroxytetrahydrofuran-3-yl]-3-oxo-2-(pyridin-3-yl)-6-[4-(trifluoromethoxy)phenyl]-2,3-dihydropyridazine-4-carboxamide]",79.2 nM,> 20000 nM
"Cn1cc(-n2nc(-c3ccc(Cl)cc3)cc(C(=O)N[C@H](CO)C(N)=O)c2=O)cn1 [Example 289, N-[(2R)-1-Amino-3-hydroxy-1-oxopropan-2-yl]-6-(4-chlorophenyl)-2-(1-methyl-1H-pyrazol-4-yl)-3-oxo-2,3-dihydropyridazine-4-carboxamide]",875 nM,> 20000 nM
"C[C@@H](CO)NC(=O)c1cc(-c2ccc(Cl)cc2)nn(-c2cn[nH]c2)c1=O [Example 190, (+)-6-(4-Chlorophenyl)-N-[(2S)-1-hydroxypropan-2-yl]-3-oxo-2-(1H-pyrazol-4-yl)-2,3-dihydropyridazine-4-carboxamide]",65.6 nM,> 20000 nM
"C[C@H](CO)NC(=O)c1cc(-c2ccc(Cl)cc2)nn(-c2cncc(F)c2)c1=O [Example 81, 6-(4-Chlorophenyl)-2-(5-fluoropyridin-3-yl)-N-[(2R)-1-hydroxypropan-2-yl]-3-oxo-2,3-dihydropyridazine-4-carboxamide]",106 nM,> 20000 nM
"O=C(N[C@H]1CCCC(F)(F)[C@@H]1O)c1cc(-c2ccc(OC(F)(F)F)cc2)nn(-c2cccnc2)c1=O (single isomer, unassigned; enantiomer 1) [Example 141, N-[(trans)-3,3-Difluoro-2-hydroxycyclohexyl]-3-oxo-2-(pyridin-3-yl)-6-[4-(trifluoromethoxy)phenyl]-2,3-dihydropyridazine-4-carboxamide, Enantiomer 1]",148 nM,> 20000 nM
"COC[C@H](CO)NC(=O)c1cc(-c2ccc(Cl)cc2)nn(-c2cccnc2)c1=O [Example 74, (+)-6-(4-Chlorophenyl)-N-[(2S)-1-hydroxy-3-methoxypropan-2-yl]-3-oxo-2-(pyridin-3-yl)-2,3-dihydropyridazine-4-carboxamide]",152 nM,> 20000 nM
"O=C(N[C@H](CO)C1CC1)c1cc(-c2ccc(Cl)cc2)nn(-c2cncnc2)c1=O [Example 273, 6-(4-Chlorophenyl)-N-[(1S)-1-cyclopropyl-2-hydroxyethyl]-3-oxo-2-(pyrimidin-5-yl)-2,3-dihydropyridazine-4-carboxamide]",101 nM,> 20000 nM
"C[C@@H](CO)NC(=O)c1cc(-c2ccc(C#N)cc2)nn(-c2cccnc2)c1=O [Example 179, 6-(4-Cyanophenyl)-N-[(2S)-1-hydroxypropan-2-yl]-3-oxo-2-(pyridin-3-yl)-2,3-dihydropyridazine-4-carboxamide]",736 nM,> 20000 nM

# More lines, in order of falling IC50 (AHR [1]), values ahead:
IC50 (AHR [1]),IC50 (AHR [2]),Structure (SMILES)
64.5 nM,> 20000 nM,"Cn1cc(-n2nc(-c3ccc(Cl)cc3)cc(C(=O)NC[C@H](O)CF)c2=O)cn1 [Example 270, 6-(4-Chlorophenyl)-N-[(2S)-3-fluoro-2-hydroxypropyl]-2-(1-methyl-1H-pyrazol-4-yl)-3-oxo-2,3-dihydropyridazine-4-carboxamide]"
60.8 nM,> 20000 nM,"COC[C@@H](CO)NC(=O)c1cc(-c2ccc(Cl)cc2)nn(-c2cnn(C)c2)c1=O [Example 30, 6-(4-Chlorophenyl)-N-[(2R)-1-hydroxy-3-methoxypropan-2-yl]-2-(1-methyl-1H-pyrazol-4-yl)-3-oxo-2,3-dihydropyridazine-4-carboxamide]"
31.4 nM,> 20000 nM,"O=C(N[C@H]1CCCC(F)(F)[C@@H]1O)c1cc(-c2ccc(Cl)cc2)nn(-c2cccnc2)c1=O (single isomer, unassigned; enantiomer 1) [Example 144, 6-(4-Chlorophenyl)-N-[(trans)-3,3-difluoro-2-hydroxycyclohexyl]-3-oxo-2-(pyridin-3-yl)-2,3-dihydropyridazine-4-carboxamide, Enantiomer 1]"
26.5 nM,> 20000 nM,"CC(C)(O)C(NC(=O)c1cc(-c2ccc(Cl)cc2)nn(-c2cccnc2)c1=O)C(F)(F)F (single isomer, unassigned; enantiomer 1) [Example 122, 6-(4-Chlorophenyl)-3-oxo-2-(pyridin-3-yl)-N-(1,1,1-trifluoro-3-hydroxy-3-methylbutan-2-yl)-2,3-dihydropyridazine-4-carboxamide, Enantiomer 1]"
25.8 nM,> 20000 nM,"O=C(NC[C@H](O)CF)c1cc(-c2ccc(C(F)(F)F)cc2)nn(-c2cccnc2)c1=O [Example 255, N-[(2S)-3-Fluoro-2-hydroxypropyl]-3-oxo-2-(pyridin-3-yl)-6-[4-(trifluoromethyl)phenyl]-2,3-dihydropyridazine-4-carboxamide]"
9.03 nM,> 20000 nM,"O=C(N[C@H](CO)C(F)(F)F)c1cc(-c2ccc(Cl)cc2)nn(-c2cnn(C(F)F)c2)c1=O [Example 236, 6-(4-Chlorophenyl)-2-[1-(difluoromethyl)-1H-pyrazol-4-yl]-3-oxo-N-[(2R)-1,1,1-trifluoro-3-hydroxypropan-2-yl]-2,3-dihydropyridazine-4-carboxamide]"
8.32 nM,> 20000 nM,"O=C(N[C@H]1CCCC(F)(F)[C@@H]1O)c1cc(-c2ccc(OC(F)(F)F)cc2)nn(-c2cccnc2)c1=O (single isomer, unassigned; enantiomer 2) [Example 142, N-[(trans)-3,3-Difluoro-2-hydroxycyclohexyl]-3-oxo-2-(pyridin-3-yl)-6-[4-(trifluoromethoxy)phenyl]-2,3-dihydropyridazine-4-carboxamide, Enantiomer 2]"
3.03 nM,> 20000 nM,"O=C(NCC1(O)CCC1)c1cc(-c2ccc(C(F)(F)F)cc2)nn(-c2cccnc2)c1=O [Example 189, N-[(1-Hydroxycyclobutyl)methyl]-3-oxo-2-(pyridin-3-yl)-6-[4-(trifluoromethyl)phenyl]-2,3-dihydropyridazine-4-carboxamide]"
1.92 nM,> 20000 nM,"CC(C)(O)C(NC(=O)c1cc(-c2ccc(C(F)(F)F)cc2)nn(-c2cccnc2)c1=O)C(F)(F)F (stereo not shown) [Example 213, 3-Oxo-2-(pyridin-3-yl)-N-(1,1,1-trifluoro-3-hydroxy-3-methylbutan-2-yl)-6-[4-(trifluoromethyl)phenyl]-2,3-dihydropyridazine-4-carboxamide]"
